Experimental data published in ChEMBL document CHEMBL3885881, “DrugMatrix”.

Organism: Rattus norvegicus
Experiment: DrugMatrix - Regimen: Daily Repeat
Format: toxicity, organism-based, Sprague-Dawley
Set-up: regimen Daily Repeat, gender Male, age 6-8 weeks
Details: in vivo, po, route oral GAVAGE, […]; for ABSOLUTE BASOPHIL / ABSOLUTE EOSINOPHIL / ABSOLUTE LYMPHOCYTE / ABSOLUTE MONOCYTE / ABSOLUTE SEGMENTED NEUTROPHIL / BASOPHIL / EOSINOPHIL / ERYTHROCYTE COUNT / HEMATOCRIT / HEMOGLOBIN / LEUKOCYTE COUNT / LYMPHOCYTE / MEAN CORPUSCULAR HEMOGLOBIN / MEAN CORPUSCULAR HEMOGLOBIN CONCENTRATION / MEAN CORPUSCULAR VOLUME / MONOCYTE / NEUTROPHIL / NUCLEATED RED BLOOD CELLS / PLATELET COUNT: tissue Blood; for ALANINE AMINOTRANSFERASE / ALBUMIN / ALKALINE PHOSPHATASE / ASPARTATE AMINOTRANSFERASE / BLOOD UREA NITROGEN / CARBON DIOXIDE / CHLORIDE / CHOLESTEROL / CREATINE PHOSPHOKINASE / CREATININE / GLUCOSE / LACTATE DEHYDROGENASE / LIPASE / PHOSPHORUS / POTASSIUM / SODIUM / TOTAL BILIRUBIN / TOTAL PROTEIN / URIC ACID: tissue Plasma
[1] = 0 mg/kg, 72 h, dose level Control, time 3 day
[2] = 0 mg/kg, 120 h, dose level Control, time 5 day
[3] = 50 mg/kg, 72 h, dose level Low, time 3 day

COC(=O)Nc1nc2ccc(C(=O)c3ccccc3)cc2[nH]1 [MEBENDAZOLE]
ABSOLUTE BASOPHIL [1]: 0 CELLS/uL | ABSOLUTE EOSINOPHIL [1]: 0 CELLS/uL | ABSOLUTE LYMPHOCYTE [1]: 9244.83 CELLS/uL | ABSOLUTE MONOCYTE [1]: 102 CELLS/uL | ABSOLUTE SEGMENTED NEUTROPHIL [1]: 869.83 CELLS/uL | BASOPHIL [1]: 0% | EOSINOPHIL [1]: 0% | ERYTHROCYTE COUNT [1]: 5.43 x10E6/uL | HEMATOCRIT [1]: 34.03% | HEMOGLOBIN [1]: 13.27 G/DL | LEUKOCYTE COUNT [1]: 10.22 x10E3/uL | LYMPHOCYTE [1]: 90.33% | MEAN CORPUSCULAR HEMOGLOBIN [1]: 24.48 pg | MEAN CORPUSCULAR HEMOGLOBIN CONCENTRATION [1]: 39.03 G/DL | MEAN CORPUSCULAR VOLUME [1]: 62.75 fL | MONOCYTE [1]: 1% | NEUTROPHIL [1]: 8.67% | NUCLEATED RED BLOOD CELLS [1]: 0.17 /100WBC | PLATELET COUNT [1]: 989 x10E3/uL | ALANINE AMINOTRANSFERASE [1]: 77 u/L | ALBUMIN [1]: 3.97 G/DL | ALKALINE PHOSPHATASE [1]: 464.83 u/L | ASPARTATE AMINOTRANSFERASE [1]: 89.83 u/L | BLOOD UREA NITROGEN [1]: 12.17 mg/dL | CARBON DIOXIDE [1]: 34.17 mmol/L | CHLORIDE [1]: 98.33 MEQ/L | CHOLESTEROL [1]: 75.17 mg/dL | CREATINE PHOSPHOKINASE [1]: 367.67 u/L | CREATININE [1]: 0.16 mg/dL | GLUCOSE [1]: 142.67 mg/dL | LACTATE DEHYDROGENASE [1]: 139.33 u/L | LIPASE [1]: 9.5 u/L | PHOSPHORUS [1]: 10.85 mg/dL | POTASSIUM [1]: 6.38 MEQ/L | SODIUM [1]: 143.2 MEQ/L | TOTAL BILIRUBIN [1]: 0.2 mg/dL | TOTAL PROTEIN [1]: 5.77 G/DL | URIC ACID [1]: 0.7 mg/dL | ABSOLUTE BASOPHIL [2]: 0 CELLS/uL | ABSOLUTE EOSINOPHIL [2]: 0 CELLS/uL | ABSOLUTE LYMPHOCYTE [2]: 8295.33 CELLS/uL | ABSOLUTE MONOCYTE [2]: 84.67 CELLS/uL | ABSOLUTE SEGMENTED NEUTROPHIL [2]: 970 CELLS/uL | BASOPHIL [2]: 0% | EOSINOPHIL [2]: 0% | ERYTHROCYTE COUNT [2]: 5.74 x10E6/uL | HEMATOCRIT [2]: 36.22% | HEMOGLOBIN [2]: 13.85 G/DL | LEUKOCYTE COUNT [2]: 9.35 x10E3/uL | LYMPHOCYTE [2]: 88.67% | MEAN CORPUSCULAR HEMOGLOBIN [2]: 24.13 pg | MEAN CORPUSCULAR HEMOGLOBIN CONCENTRATION [2]: 38.25 G/DL | MEAN CORPUSCULAR VOLUME [2]: 63.08 fL | MONOCYTE [2]: 1% | NEUTROPHIL [2]: 10.33% | NUCLEATED RED BLOOD CELLS [2]: 0.17 /100WBC | PLATELET COUNT [2]: 883.83 x10E3/uL | ALANINE AMINOTRANSFERASE [2]: 64.5 u/L | ALBUMIN [2]: 4.12 G/DL | ALKALINE PHOSPHATASE [2]: 425.67 u/L | ASPARTATE AMINOTRANSFERASE [2]: 88.5 u/L | BLOOD UREA NITROGEN [2]: 14.17 mg/dL | CARBON DIOXIDE [2]: 30.5 mmol/L | CHLORIDE [2]: 100.33 MEQ/L | CHOLESTEROL [2]: 55.33 mg/dL | CREATINE PHOSPHOKINASE [2]: 287.17 u/L | CREATININE [2]: 0.2 mg/dL | GLUCOSE [2]: 162.83 mg/dL | LACTATE DEHYDROGENASE [2]: 111.33 u/L | LIPASE [2]: 10.5 u/L | PHOSPHORUS [2]: 10.32 mg/dL | POTASSIUM [2]: 5.13 MEQ/L | SODIUM [2]: 143.93 MEQ/L | TOTAL BILIRUBIN [2]: 0.17 mg/dL | TOTAL PROTEIN [2]: 5.9 G/DL | URIC ACID [2]: 0.77 mg/dL | ABSOLUTE BASOPHIL [3]: 0 CELLS/uL | ABSOLUTE EOSINOPHIL [3]: 0 CELLS/uL | ABSOLUTE LYMPHOCYTE [3]: 11176.67 CELLS/uL | ABSOLUTE MONOCYTE [3]: 118.33 CELLS/uL | ABSOLUTE SEGMENTED NEUTROPHIL [3]: 1305 CELLS/uL | BASOPHIL [3]: 0% | EOSINOPHIL [3]: 0% | ERYTHROCYTE COUNT [3]: 5.06 x10E6/uL | HEMATOCRIT [3]: 32% | HEMOGLOBIN [3]: 12.6 G/DL | LEUKOCYTE COUNT [3]: 12.6 x10E3/uL | LYMPHOCYTE [3]: 89.33% | MEAN CORPUSCULAR HEMOGLOBIN [3]: 24.93 pg | MEAN CORPUSCULAR HEMOGLOBIN CONCENTRATION [3]: 39.43 G/DL | MEAN CORPUSCULAR VOLUME [3]: 63.27 fL | MONOCYTE [3]: 1% | NEUTROPHIL [3]: 9.67% | NUCLEATED RED BLOOD CELLS [3]: 0 /100WBC | PLATELET COUNT [3]: 983 x10E3/uL | ALANINE AMINOTRANSFERASE [3]: 78 u/L | ALBUMIN [3]: 3.87 G/DL | ALKALINE PHOSPHATASE [3]: 423.67 u/L | ASPARTATE AMINOTRANSFERASE [3]: 86.33 u/L | BLOOD UREA NITROGEN [3]: 12.33 mg/dL | CARBON DIOXIDE [3]: 32 mmol/L | CHLORIDE [3]: 100 MEQ/L | CHOLESTEROL [3]: 74.67 mg/dL | CREATINE PHOSPHOKINASE [3]: 274.33 u/L | CREATININE [3]: 0.25 mg/dL | GLUCOSE [3]: 142.67 mg/dL | LACTATE DEHYDROGENASE [3]: 145 u/L | LIPASE [3]: 11 u/L | PHOSPHORUS [3]: 11.2 mg/dL | POTASSIUM [3]: 5.98 MEQ/L | SODIUM [3]: 144.33 MEQ/L | TOTAL BILIRUBIN [3]: 0.17 mg/dL | TOTAL PROTEIN [3]: 5.53 G/DL | URIC ACID [3]: 0.77 mg/dL
